Measured values from US10670605B2, “Cysteine reactive probes and uses thereof” (The Scripps Research Institute, priority 2015, dated 2020).
Structures can show the parent of a compound that is named as a salt.

Key:
MLTK (ZAK) C22 = biological target: T1, MLTK (ZAK) C22 (Homo sapiens, UniProt Q9NYL2); assay: Blockade of ibrutinib-derived probe 59 labeling of MLTK (gel-based ABPP); type: binding
T1 construct: expressed in transfected cells
Description: CuAAC was performed with 20 μM rhodamine-azide (50× stock in DMSO), 1 mM tris(2-carboxyethyl)phosphine hydrochloride (TCEP; fresh 50× stock in water, final concentration=1 mM), ligand (17× stock in DMSO:t-butanol 1:4, final concentration=100 μM) and 1 mM CuSO4 (50× stock in water, final concentration=1 mM). […] Quenched reactions were analyzed by SDS-PAGE and visualized by in-gel fluorescence. […] For MLTK, HEK 293T cells stably overexpressing MTLK^2 were treated with the indicated fragment electrophiles for 1 h, followed by labeling with 59 (1 μl, of 125 μM, final concentration=5 μM) for 1 h. These were followed by CuAAC conjugation to rhodamine-azide and evaluation by SDS-PAGE as described above.

[1] = biological target: T2, Cys residues in primary human T cells (Homo sapiens, UniProt P11216); assay: isoTOP-ABPP of compound-treated primary human T cells; type: cell-based; conditions: PYGB C326 (P11216)
T2 sequence (P11216 1-843): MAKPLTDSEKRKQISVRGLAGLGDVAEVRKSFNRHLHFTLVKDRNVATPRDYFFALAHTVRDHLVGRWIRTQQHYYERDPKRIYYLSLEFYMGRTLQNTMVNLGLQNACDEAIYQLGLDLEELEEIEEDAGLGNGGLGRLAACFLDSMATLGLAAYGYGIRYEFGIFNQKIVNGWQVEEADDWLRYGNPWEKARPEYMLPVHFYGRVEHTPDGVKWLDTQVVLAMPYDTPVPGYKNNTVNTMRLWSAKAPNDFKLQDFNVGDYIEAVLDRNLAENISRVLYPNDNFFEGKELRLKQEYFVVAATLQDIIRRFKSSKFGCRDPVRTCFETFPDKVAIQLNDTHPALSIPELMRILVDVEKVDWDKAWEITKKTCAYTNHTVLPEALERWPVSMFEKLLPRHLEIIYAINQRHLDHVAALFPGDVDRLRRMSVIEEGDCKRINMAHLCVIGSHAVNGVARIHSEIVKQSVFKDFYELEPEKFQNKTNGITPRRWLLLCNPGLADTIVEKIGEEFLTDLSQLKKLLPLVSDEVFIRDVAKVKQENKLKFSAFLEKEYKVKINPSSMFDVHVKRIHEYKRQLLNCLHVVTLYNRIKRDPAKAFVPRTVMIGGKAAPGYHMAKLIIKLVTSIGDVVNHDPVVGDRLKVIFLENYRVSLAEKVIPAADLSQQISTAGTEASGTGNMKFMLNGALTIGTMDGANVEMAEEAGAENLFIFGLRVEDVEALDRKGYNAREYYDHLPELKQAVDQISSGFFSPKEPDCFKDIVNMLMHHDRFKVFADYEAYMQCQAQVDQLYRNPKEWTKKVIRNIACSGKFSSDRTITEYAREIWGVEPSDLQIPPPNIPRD

[2] = biological target: Cys residues in primary human T cells (Homo sapiens, UniProt Q7Z6Z7); assay: as above; type: cell-based; conditions: HUWE1 C3372 (Q7Z6Z7)
Cys residues in primary human T cells (Homo sapiens, UniProt Q7Z6Z7), sequence (Q7Z6Z7 whole entry): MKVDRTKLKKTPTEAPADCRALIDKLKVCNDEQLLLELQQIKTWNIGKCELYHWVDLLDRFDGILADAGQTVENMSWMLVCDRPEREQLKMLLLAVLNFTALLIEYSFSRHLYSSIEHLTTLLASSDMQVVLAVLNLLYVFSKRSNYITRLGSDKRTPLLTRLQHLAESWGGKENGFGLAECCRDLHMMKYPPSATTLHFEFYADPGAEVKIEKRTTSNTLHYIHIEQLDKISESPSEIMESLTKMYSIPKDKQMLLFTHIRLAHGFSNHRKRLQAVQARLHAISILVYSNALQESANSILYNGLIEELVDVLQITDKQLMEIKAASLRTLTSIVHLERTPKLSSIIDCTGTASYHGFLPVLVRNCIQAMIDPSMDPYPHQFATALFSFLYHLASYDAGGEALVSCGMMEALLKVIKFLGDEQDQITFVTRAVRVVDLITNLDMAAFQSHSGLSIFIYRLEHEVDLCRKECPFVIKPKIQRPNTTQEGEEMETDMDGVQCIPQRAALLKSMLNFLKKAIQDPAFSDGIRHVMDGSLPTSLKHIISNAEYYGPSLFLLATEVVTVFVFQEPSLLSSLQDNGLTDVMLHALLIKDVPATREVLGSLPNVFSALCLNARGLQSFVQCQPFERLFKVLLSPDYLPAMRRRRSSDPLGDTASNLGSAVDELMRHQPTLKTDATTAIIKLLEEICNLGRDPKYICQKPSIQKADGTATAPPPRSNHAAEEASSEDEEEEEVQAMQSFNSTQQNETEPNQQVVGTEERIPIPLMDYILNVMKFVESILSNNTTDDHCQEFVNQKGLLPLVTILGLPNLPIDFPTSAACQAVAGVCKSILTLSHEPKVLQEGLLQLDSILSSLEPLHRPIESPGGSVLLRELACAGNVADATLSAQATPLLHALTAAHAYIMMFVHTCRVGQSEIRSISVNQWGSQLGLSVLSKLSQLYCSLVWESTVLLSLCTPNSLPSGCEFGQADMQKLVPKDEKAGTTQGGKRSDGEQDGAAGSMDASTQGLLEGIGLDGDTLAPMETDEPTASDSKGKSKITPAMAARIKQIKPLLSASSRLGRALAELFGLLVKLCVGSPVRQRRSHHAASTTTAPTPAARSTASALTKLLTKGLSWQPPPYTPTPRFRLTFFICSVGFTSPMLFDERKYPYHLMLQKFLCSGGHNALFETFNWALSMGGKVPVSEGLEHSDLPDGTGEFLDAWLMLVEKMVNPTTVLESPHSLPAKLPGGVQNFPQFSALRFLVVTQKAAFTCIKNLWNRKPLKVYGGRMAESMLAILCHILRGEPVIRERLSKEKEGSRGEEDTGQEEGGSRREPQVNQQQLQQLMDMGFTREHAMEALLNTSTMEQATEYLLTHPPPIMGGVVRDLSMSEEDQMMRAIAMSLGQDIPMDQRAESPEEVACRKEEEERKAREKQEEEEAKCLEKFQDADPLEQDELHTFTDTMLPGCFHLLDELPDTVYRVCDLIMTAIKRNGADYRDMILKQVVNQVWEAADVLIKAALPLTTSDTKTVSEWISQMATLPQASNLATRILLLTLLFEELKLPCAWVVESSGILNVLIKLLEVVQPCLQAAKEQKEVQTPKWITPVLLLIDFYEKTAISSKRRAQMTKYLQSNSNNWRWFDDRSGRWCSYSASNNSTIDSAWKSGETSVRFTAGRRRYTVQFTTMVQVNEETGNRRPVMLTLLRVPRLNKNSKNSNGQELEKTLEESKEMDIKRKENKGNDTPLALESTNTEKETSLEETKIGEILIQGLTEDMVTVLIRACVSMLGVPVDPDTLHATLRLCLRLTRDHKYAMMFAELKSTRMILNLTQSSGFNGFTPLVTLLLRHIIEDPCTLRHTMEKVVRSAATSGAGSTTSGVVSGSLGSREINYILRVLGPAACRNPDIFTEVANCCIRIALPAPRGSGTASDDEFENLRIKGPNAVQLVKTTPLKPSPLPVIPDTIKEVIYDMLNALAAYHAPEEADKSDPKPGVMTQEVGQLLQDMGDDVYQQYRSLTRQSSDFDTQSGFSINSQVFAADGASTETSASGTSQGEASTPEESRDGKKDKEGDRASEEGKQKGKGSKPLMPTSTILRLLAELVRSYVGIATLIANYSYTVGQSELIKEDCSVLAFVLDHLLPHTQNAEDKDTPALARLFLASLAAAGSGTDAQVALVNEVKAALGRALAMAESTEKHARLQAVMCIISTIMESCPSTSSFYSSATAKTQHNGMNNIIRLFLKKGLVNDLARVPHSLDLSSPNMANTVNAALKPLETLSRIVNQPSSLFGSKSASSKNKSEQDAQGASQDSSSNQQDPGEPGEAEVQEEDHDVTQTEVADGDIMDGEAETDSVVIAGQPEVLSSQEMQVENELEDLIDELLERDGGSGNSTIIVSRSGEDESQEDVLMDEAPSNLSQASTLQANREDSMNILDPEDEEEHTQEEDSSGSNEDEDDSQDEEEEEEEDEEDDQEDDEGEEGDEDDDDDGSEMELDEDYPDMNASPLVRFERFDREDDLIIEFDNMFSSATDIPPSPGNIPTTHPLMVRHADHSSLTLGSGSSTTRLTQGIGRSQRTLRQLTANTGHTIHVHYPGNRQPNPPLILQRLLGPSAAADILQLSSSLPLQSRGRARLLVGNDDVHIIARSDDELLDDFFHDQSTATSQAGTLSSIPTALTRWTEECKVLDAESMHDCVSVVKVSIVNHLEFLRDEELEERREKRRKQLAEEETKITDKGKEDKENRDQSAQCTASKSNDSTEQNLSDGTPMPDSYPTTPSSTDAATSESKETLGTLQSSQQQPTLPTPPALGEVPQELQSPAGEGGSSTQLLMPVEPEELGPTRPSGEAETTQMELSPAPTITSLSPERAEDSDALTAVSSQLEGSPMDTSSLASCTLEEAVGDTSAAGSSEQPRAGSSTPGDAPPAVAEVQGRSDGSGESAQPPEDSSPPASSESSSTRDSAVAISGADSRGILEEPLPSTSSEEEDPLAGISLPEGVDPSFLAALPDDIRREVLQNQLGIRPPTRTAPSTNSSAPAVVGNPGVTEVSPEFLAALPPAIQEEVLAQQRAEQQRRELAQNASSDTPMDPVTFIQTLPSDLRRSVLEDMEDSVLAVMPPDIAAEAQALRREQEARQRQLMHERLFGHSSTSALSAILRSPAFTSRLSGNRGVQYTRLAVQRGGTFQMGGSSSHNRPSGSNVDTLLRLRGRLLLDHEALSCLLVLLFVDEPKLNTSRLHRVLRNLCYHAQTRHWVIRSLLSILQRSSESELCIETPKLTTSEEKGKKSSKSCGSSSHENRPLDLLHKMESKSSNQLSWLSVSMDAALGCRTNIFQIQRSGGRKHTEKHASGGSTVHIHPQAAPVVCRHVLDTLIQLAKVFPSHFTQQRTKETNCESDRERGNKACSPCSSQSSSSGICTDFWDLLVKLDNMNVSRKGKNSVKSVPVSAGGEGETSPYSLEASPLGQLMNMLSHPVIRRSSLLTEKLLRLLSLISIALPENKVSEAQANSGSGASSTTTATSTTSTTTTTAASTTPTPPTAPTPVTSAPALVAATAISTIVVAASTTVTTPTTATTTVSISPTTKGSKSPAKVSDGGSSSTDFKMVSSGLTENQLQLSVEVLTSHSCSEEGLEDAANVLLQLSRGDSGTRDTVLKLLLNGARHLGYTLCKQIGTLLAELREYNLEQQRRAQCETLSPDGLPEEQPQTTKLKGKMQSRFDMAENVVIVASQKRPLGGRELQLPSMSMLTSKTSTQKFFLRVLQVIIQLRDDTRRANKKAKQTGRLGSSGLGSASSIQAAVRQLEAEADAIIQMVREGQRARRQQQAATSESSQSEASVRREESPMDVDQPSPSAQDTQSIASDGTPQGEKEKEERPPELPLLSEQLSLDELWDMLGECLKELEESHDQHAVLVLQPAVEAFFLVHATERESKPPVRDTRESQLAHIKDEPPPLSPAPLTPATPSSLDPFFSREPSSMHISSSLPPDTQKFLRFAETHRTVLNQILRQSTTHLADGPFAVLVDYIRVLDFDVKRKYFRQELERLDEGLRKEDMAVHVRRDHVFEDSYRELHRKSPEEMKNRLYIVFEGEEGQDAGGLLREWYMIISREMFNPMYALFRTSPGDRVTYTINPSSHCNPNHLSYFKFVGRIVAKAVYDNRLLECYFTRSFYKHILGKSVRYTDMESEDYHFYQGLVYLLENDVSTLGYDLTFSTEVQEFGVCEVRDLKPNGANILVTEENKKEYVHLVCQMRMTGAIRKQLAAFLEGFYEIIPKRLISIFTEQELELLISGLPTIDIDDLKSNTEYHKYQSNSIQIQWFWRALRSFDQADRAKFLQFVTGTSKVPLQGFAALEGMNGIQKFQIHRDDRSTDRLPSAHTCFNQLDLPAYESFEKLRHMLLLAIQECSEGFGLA

[3] = biological target: T3, Cys residues in primary human T cells (Homo sapiens, UniProt Q9Y2W6); assay: as above; type: cell-based; conditions: TDRKH C109 (Q9Y2W6)
T3 sequence (Q9Y2W6 1-561): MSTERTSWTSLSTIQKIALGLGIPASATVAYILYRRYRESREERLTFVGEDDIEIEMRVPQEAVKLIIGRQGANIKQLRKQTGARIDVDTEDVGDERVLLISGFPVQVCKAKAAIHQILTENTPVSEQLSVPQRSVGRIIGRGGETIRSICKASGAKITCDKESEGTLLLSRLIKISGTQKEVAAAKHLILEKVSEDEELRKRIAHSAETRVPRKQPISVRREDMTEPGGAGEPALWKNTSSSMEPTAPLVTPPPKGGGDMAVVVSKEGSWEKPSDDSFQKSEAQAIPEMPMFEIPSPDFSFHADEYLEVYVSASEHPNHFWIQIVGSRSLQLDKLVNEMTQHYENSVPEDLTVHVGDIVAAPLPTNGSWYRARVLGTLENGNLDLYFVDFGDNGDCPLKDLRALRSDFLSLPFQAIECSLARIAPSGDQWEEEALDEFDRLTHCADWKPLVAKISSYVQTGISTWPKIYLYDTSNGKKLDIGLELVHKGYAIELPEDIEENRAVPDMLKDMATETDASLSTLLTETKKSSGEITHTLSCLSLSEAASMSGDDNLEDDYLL

[4] = system: primary mouse splenocytes; conditions: wild type and Nrf2(-/-) splenocytes; cited from earlier work

T1 sequence (Q9NYL2 whole entry): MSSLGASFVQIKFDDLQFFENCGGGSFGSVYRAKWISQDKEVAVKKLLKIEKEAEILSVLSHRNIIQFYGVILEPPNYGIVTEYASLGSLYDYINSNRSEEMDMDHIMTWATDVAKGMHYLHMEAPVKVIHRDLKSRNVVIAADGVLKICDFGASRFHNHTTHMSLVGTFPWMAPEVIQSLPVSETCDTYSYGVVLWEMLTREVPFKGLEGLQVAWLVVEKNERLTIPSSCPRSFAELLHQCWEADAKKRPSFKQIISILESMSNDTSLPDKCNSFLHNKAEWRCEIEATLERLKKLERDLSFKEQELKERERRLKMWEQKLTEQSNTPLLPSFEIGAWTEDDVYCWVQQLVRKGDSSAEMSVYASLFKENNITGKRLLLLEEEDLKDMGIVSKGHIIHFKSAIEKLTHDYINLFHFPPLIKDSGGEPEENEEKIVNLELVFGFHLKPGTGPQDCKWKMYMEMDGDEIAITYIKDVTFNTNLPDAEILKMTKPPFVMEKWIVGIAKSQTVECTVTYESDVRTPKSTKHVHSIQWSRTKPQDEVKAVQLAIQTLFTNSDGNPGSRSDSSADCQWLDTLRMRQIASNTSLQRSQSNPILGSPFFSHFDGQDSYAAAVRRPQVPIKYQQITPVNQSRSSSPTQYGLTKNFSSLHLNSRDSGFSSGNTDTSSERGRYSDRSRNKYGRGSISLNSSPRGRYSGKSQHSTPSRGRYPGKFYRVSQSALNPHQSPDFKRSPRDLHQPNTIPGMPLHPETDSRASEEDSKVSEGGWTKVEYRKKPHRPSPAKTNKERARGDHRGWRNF

## O=C(CCl)Nc1cc(C(F)(F)F)cc(C(F)(F)F)c1 [compound 3]
MLTK (ZAK) C22
  blockade of probe 59 labeling of MLTK (in words): inactive

## COC(=O)/C=C/C(=O)OC [DMF, dimethyl fumarate]
[1]; DMF 10 μM 4h
  R value (DMSO/DMF): 1.65
[1]; DMF 25 μM 4h
  R value (DMSO/DMF): 3.53
[1]; DMF 50 μM 1h
  R value (DMSO/DMF): 2.47
[1]; DMF 50 μM 2h
  R value (DMSO/DMF): 3.73
[1]; DMF 50 μM 4h
  R value (DMSO/DMF): 6.76
[2]; DMF 10 μM 4h
  R value (DMSO/DMF): 1.58
[2]; DMF 50 μM 1h
  R value (DMSO/DMF): 2.28
[2]; DMF 50 μM 2h
  R value (DMSO/DMF): 4.43
[2]; DMF 50 μM 4h
  R value (DMSO/DMF): 10.48
[3]; DMF 10 μM 4h
  R value (DMSO/DMF): 2.34
[3]; DMF 50 μM 1h
  R value (DMSO/DMF): 4
[3]; DMF 50 μM 2h
  R value (DMSO/DMF): 20
[3]; DMF 50 μM 4h
  R value (DMSO/DMF): 20
Primary human T cells
  T cell viability: did not impair
[4]
  pro-inflammatory cytokine release: inhibits
